Data on seven compounds can be found in paper PMC8521653 (ACS Medicinal Chemistry Letters, 2021).

The test system of test [1] is PREP-catalyzed α-synuclein dimerization in N2A cells. The experiment in a line: αSyn dimerization, protein fragment complementation assay (PCA) in N2A cells. Type of test: cell-based. The conditions noted are these: 10 μM; for decrease of aSyn dimerization compared to DMSO control: PCA, Figure S1A, % decrease. The protocol: The effect of the compounds on autophagy was determined by using GFP-LC3B-RFP expressing HEK-293 cells.[15],[34] The effect on αSyn dimerization was evaluated with a protein fragment complementation assay (PCA) by using N2A cells.[10],[15],[16] The increase in autophagic flux was measured as a decrease in GFP signal due to increased degradation of GFP-LC3B, and the decrease in αSyn dimerization was measured as a decrease in luminescence, both compared with DMSO (Table 1). […] Rapamycin and starvation are known to induce autophagy, lowering the fluorescence to 65–70% in our assays, and were therefore used as reference compounds for this. Test compounds were assayed at 10 μM concentration with 0.1% DMSO. A graphical representation of the mean values (± SEM) can be seen in the Supporting Information (Figure S1).
Measuring biological activity […]
α-Synuclein Dimerization. αSyn dimerization was assessed by using PCA, which was carried out as described previously in Kilpeläinen et al.1 In short, N2A cells were seeded on poly-L-lysine-coated 96-well plates (Isoplate™ white wall, PerkinElmer Life Sciences) at the density of 13 000 cells/well. 24 h post-plating, reporter plasmids were transfected with 100 ng of total plasmid DNA per well. N2A cells were transfected with 25 ng of both αSyn-Gluc1 and αSyn-Gluc2 and 50 ng mock-plasmid or non-tagged human PREP expression plasmid 50 ng/well. Lipofectamine 3000 (Thermo Fischer Scientific) was used as the transfection reagent. 100 µL normal growth medium was added to all wells at 24 h post-transfection. 48 hours post-transfection medium was changed to phenol red free DMEM without serum containing the tested compounds at 10 µM concentration, with 0,1% DMSO as vehicle control. Proteasome inhibitors lactacystin (AG Scientific) at 10 µM and MG-132 (Enzo Life Sciences) at 10 µM served as a positive control. The PCA signal was assessed by injecting 25 µL of native coelenterazine (Nanolight Technology) in phenol red free DMEM per well (final concentration 6 µM). The emitted luminescence was read using Varioskan LUX multimode microplate reader (Thermo Scientific). For each experimental condition, 4 replicate wells were used in each experiment, and at least 3 separate experiments for each treatment except for 15c which had 2 separate experiments. […]

The test system is the same in test [2]. The conditions noted are these: luminescence signal percentage of DMSO control with SEM, ref Kilpeläinen et al.[16]; cited from earlier work.
In test [3] the test system is GFP-LC3B-RFP expressing HEK-293 cells. The test can be described thus: Autophagic flux, GFP signal in GFP-LC3B-RFP expressing HEK-293 cells. The conditions noted are these: for effect on autophagy (in words) / activity at 10 µM: 10 μM; for activity at 10 µM: Homo sapiens, HEK293, GFP signal percentage of DMSO control with SEM, HEK-293 cells, read-out: autophagy at 10 μM (%). Type of test: cell-based.

The test system is the same in test [4]. The arrangement: method as in Kilpeläinen et al.[15]. The settings on record: GFP signal percentage of DMSO control with SEM, ref Kilpeläinen et al.[15]; cited from earlier work.
The target in test [5] is T1, purified recombinant porcine PREP (Sus scrofa, UniProt P23687).
T1 construct: made in house; host or cells: E. coli
The test can be described thus: Inhibition of the proteolytic activity of PREP, microplate assay with Suc-Gly-Pro-AMC substrate. Type of test: biochemical. The settings on record: recombinant porcine PREP, Suc-Gly-Pro-AMC, 30 °C, pH 7.0; 95% CI in brackets. On the procedure:
Inhibition of the proteolytic activity (IC50) of PREP was determined using purified recombinant porcine PREP[25] as previously described.[16]
Measuring biological activity
Inhibitory Activity. The IC 50 values for compounds were determined in the microplate assay procedure described in Kilpeläinen et al.1 Porcine PREP cDNA was expressed in E.coli cells and purified as described in Venäläinen et al.3 The enzyme dilution was preincubated with 0.1 M sodium–potassium phosphate buffer (75 µL, pH 7.0) containing the compounds at desired concentrations in 30 °C for 30 min. The final concentration of the compounds in the assay mixture varied from 1 mM-1 nM and the final concentration of the enzyme was approximately 0.1 nM as measured by Bradford´s method. The enzyme reaction was carried out by adding 25 µL of 4 mM Suc-Gly-Pro-AMC substrate dissolved in 0.1 M sodium–potassium phosphate buffer (pH 7.0) into the assay mixture and incubating at 30° C for 60 min. The reaction was terminated by adding […] of 1 M sodium acetate buffer (pH 4.2). Formation of AMC was measured with Victor2 multilabel counter (PerkinElmer; excitation/emission 360 nm/ 460 nm), with a standard curve of 0.1-5 nM AMC in 0.1 M sodium–potassium phosphate buffer present. All activity measurements were made at least in triplicate. The inhibitory activities (percent of control) were plotted against the log concentration of the compound, and the IC50-value was determined by non-linear regression utilizing GraphPad Prism 7.0 software. […]

Test [6] deals with T1, purified recombinant porcine PREP. The arrangement: method as in Kilpeläinen et al.[16]. The conditions noted are these: 95% CI in brackets, ref Kilpeläinen et al.[16]; cited from earlier work.

For orientation: IC50 means the concentration that inhibits the measured activity by half.

SMILES strings stand for the structures. Where two headings read alike, the source gives them in different places. Marks after values point to notes of the source that are not given here.

T1 sequence (P23687 whole entry): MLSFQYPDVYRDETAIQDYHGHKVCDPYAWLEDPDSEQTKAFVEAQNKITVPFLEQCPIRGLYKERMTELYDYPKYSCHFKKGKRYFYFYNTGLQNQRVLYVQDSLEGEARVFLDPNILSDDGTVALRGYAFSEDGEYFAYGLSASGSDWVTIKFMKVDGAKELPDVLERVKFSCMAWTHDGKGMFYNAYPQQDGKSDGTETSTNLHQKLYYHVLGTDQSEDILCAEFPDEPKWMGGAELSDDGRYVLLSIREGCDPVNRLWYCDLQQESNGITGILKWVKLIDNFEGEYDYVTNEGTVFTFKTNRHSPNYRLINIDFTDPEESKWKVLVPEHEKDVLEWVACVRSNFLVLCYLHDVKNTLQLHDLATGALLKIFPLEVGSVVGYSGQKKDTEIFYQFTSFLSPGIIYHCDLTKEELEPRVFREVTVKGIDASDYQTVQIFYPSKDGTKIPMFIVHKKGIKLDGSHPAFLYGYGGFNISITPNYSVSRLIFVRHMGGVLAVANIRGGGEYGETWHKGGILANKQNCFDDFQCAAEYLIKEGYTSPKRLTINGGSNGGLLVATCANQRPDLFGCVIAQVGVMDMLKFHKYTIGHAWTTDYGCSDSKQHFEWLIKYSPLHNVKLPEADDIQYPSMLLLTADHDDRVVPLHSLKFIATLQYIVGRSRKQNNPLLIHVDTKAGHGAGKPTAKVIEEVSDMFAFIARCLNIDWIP

As for `C[C@H](NC(=O)CCCc1ccccc1)C(=O)N1CCC[C@H]1c1nnn[nH]1` [Compound 1b], the “decrease of aSyn dimerization compared to DMSO control” value in test [1] came to 25%. Moreover, the “α-synuclein dimerization at 10 μM (%)” value in test [2] is listed as 75 ^e (4.9) %. In addition, the “effect on autophagy (in words)” value in test [3] is reported as “effective at inducing autophagy”. In test [3] (10 µM, 24 h, Figure S1B, % decrease), the “decrease in autophagic flux assay GFP signal compared to DMSO control” value is 29%. Besides, the activity at 10 µM in test [3] (24 h) was determined as 71%.
With `C[C@@H](C(=O)N1CCC[C@H]1c1nnn[nH]1)N(C)C(=O)CCCc1ccccc1` [Compound 1d], in test [2], the “α-synuclein dimerization at 10 μM (%)” value is given as 75 ^e (7.3) %. The “effect on autophagy (in words)” value in test [3] is listed as “no significant activity”. For the same compound, the activity at 10 µM in test [3] (24 h) is 93%.
As for `CN(CC(=O)N1CCC[C@H]1c1nnn[nH]1)C(=O)CCCc1ccccc1` [Compound 1c], the “α-synuclein dimerization at 10 μM (%)” value in test [2] is reported as 75 ^e (7.7) %. The “effect on autophagy (in words)” value in test [3] is listed as “some effect”. In addition, the activity at 10 µM in test [3] (24 h) turned out to be 84%.
For the compound `N#C[C@@H]1CCCN1C(=O)[C@@H]1CCCN1C(=O)CCCc1ccccc1` [KYP-2047], in test [4], the “autophagy at 10 μM (%)” value is 89 ^d (3.4) %.
Take `O=C(CCCc1ccccc1)N1CCC[C@H]1C(=O)N1CCC[C@H]1c1nnn[nH]1` [Compound 1a]: the “decrease of aSyn dimerization compared to DMSO control” value in test [1] is 23%. In addition, in test [2], the “α-synuclein dimerization at 10 μM (%)” value is given as 82 ^e (6.8) %. In test [3], the “effect on autophagy (in words)” value is “no significant activity”. Further, the activity at 10 µM in test [3] (24 h) turned out to be 92%.
In the case of `C[C@H](NC(=O)CCCc1cccs1)C(=O)N1CCC[C@H]1c1nnn[nH]1` [Compound 17b], the “effect on αSyn dimerization (in words)” value in test [1] is “inactive for both functions”. The activity at 10 µM stood at 93% in test [1] (Mus musculus, luminescence signal percentage of DMSO control with SEM, N2A cells) and 92% in test [3] (24 h). For the same compound, the IC50 in test [5] was determined as 1100 nM. Moreover, the “effect on autophagy (in words)” value in test [3] was “inactive for both functions”.
Consider `O=C(CCCc1ccccc1)NCC(=O)N1CCC[C@H]1c1nnn[nH]1` [Compound 1e], for which, in test [6], the 50% inhibitory concentration (IC50) was 210000 nM. The “α-synuclein dimerization at 10 μM (%)” value in test [2] is 77 ^e (6.2) %. Moreover, the “effect on autophagy (in words)” value in test [3] is listed as “no significant activity”. In addition, the activity at 10 µM in test [3] (24 h) was 90%.
